Tests used:
[1] = target: T1, Calcium/calmodulin-dependent protein kinase type IV (Homo sapiens) (UniProt Q16566); assay: Inhibition of human full length CAMK4 expressed in baculovirus assessed as substrate phosphorylation using fluorescence-labelled peptides as substrate at 0.06 uM after 90 mins by microfluidic peptide phosphorylation assay
T1 sequence (whole entry): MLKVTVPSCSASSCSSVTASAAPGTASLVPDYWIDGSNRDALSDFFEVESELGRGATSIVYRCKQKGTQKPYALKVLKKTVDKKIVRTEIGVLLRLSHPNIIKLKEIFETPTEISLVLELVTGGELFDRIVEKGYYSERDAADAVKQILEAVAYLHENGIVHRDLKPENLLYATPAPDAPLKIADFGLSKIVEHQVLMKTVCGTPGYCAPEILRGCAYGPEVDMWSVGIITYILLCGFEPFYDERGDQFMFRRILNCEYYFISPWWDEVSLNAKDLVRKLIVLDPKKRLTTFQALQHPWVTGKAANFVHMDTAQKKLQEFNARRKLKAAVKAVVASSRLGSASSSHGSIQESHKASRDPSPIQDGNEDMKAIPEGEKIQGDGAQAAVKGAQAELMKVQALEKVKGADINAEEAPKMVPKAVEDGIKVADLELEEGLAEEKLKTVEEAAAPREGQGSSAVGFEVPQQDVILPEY

[2] = target: Ribosomal protein S6 kinase alpha-4 (Homo sapiens) (UniProt O75676); assay: Inhibition of human full length MSK2 expressed in baculovirus assessed as substrate phosphorylation using fluorescence-labelled peptides as substrate at 0.2 uM after 90 mins by microfluidic peptide phosphorylation assay
[3] = target: T2, Aurora kinase A (Homo sapiens) (UniProt O14965); assay: Inhibition of human full length AurA expressed in baculovirus assessed as substrate phosphorylation using fluorescence-labelled peptides as substrate at […] after 90 mins by microfluidic peptide phosphorylation assay
T2 sequence (whole entry): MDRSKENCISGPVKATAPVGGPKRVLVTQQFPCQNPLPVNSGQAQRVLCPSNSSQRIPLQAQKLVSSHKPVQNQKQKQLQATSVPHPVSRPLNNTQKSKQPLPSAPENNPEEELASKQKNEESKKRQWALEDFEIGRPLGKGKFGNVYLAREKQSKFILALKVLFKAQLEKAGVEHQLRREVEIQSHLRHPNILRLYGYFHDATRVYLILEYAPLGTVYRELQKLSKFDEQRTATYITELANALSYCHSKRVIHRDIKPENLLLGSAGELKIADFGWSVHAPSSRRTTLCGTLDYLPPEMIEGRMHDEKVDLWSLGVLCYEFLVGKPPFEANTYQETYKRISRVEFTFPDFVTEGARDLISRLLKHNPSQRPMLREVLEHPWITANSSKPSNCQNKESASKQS

[4] = target: T3, cGMP-dependent protein kinase 1 (Homo sapiens) (UniProt Q13976); assay: Inhibition of human full length PKG-1a expressed in baculovirus assessed as substrate phosphorylation using fluorescence-labelled peptides as substrate at 9 uM after 90 mins by microfluidic peptide phosphorylation assay
T3 sequence (whole entry): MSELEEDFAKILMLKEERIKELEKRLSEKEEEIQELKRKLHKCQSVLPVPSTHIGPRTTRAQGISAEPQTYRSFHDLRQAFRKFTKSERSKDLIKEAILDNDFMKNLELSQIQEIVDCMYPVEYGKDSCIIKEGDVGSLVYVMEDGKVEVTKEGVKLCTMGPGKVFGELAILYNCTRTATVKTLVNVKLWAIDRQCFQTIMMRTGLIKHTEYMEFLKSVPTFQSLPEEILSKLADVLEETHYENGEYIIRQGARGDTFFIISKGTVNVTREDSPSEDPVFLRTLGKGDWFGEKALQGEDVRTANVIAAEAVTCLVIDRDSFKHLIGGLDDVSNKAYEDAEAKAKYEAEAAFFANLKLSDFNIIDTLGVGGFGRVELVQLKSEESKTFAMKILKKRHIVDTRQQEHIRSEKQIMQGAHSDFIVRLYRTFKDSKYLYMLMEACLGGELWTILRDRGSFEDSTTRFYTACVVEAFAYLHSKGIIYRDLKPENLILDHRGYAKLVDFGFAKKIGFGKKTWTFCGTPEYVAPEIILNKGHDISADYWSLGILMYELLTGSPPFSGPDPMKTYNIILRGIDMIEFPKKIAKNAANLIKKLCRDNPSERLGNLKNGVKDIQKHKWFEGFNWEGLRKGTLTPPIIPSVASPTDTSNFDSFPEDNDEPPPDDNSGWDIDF

[5] = target: RAF proto-oncogene serine/threonine-protein kinase (Homo sapiens) (UniProt P04049); assay: Inhibition of human truncated c-Raf expressed in baculovirus assessed as substrate phosphorylation using fluorescence-labelled peptides as substrate at 95 uM after 90 mins by microfluidic peptide phosphorylation assay
[6] = target: T4, Inhibitor of nuclear factor kappa-B kinase subunit beta (Homo sapiens) (UniProt O14920); assay: Inhibition of human full length IKK beta expressed in baculovirus assessed as substrate phosphorylation using fluorescence-labelled peptides as substrate at 8 uM after 90 mins by microfluidic peptide phosphorylation assay
T4 sequence (whole entry): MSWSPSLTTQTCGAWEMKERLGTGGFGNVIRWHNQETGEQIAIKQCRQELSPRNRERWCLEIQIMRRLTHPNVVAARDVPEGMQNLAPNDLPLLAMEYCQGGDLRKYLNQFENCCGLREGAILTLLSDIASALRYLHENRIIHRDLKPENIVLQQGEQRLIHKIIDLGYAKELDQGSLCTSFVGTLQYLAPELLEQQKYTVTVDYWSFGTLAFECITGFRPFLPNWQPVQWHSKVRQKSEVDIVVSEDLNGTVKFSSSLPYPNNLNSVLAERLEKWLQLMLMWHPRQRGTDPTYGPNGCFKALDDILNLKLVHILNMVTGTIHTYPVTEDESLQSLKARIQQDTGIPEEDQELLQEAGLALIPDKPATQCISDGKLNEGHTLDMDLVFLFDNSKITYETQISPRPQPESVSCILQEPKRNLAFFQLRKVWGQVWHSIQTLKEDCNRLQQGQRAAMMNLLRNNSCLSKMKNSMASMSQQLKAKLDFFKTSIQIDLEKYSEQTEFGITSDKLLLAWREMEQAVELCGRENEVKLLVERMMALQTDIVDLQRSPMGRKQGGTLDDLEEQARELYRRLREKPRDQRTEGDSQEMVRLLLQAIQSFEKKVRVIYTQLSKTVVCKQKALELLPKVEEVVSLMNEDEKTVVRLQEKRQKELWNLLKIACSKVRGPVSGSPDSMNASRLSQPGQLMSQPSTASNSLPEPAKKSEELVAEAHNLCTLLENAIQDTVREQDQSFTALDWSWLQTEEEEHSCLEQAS

[7] = target: Tyrosine-protein kinase ABL2 (Homo sapiens) (UniProt P42684); assay: Inhibition of human truncated Arg expressed in baculovirus assessed as substrate phosphorylation using fluorescence-labelled peptides as substrate at 1000 uM after 90 mins by microfluidic peptide phosphorylation assay
[8] = target: Casein kinase I isoform delta (Homo sapiens) (UniProt P48730); assay: Inhibition of human CK1D catalytic domain expressed in Escherichia coli cell assessed as substrate phosphorylation using fluorescence-labelled peptides as substrate at 2 uM after 90 mins by microfluidic peptide phosphorylation assay
Casein kinase I isoform delta (Homo sapiens), sequence (P48730 whole entry, looked up, the tested form may be a part, canonical isoform): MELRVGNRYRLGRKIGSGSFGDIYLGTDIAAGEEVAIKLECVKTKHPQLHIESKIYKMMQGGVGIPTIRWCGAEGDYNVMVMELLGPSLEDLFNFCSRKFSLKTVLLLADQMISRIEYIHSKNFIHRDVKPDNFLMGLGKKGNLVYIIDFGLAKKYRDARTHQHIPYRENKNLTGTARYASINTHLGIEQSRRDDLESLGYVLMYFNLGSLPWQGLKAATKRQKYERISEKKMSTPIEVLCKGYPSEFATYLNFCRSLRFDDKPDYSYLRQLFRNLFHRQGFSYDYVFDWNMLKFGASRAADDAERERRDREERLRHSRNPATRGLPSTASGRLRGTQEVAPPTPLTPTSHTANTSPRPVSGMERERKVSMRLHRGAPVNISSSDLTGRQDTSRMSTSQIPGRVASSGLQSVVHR

RAF proto-oncogene serine/threonine-protein kinase (Homo sapiens), sequence (P04049 whole entry, the tested form may be a part): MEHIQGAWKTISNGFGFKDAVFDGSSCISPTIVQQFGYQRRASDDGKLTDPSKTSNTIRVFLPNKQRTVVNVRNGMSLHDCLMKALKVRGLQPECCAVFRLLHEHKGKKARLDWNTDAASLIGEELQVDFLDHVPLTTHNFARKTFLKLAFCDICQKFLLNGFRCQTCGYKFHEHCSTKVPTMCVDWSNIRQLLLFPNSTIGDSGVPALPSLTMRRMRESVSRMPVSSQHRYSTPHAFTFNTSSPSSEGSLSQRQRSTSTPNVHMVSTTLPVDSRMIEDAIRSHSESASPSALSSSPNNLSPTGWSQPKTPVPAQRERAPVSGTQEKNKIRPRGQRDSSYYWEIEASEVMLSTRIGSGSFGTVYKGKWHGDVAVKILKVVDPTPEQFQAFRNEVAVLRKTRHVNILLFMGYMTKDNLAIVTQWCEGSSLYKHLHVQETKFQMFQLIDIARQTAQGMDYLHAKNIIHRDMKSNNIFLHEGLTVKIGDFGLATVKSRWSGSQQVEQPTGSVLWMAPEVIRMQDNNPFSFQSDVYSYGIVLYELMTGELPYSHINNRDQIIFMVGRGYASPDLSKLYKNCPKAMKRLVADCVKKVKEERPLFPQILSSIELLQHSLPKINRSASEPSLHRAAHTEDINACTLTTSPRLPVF
Ribosomal protein S6 kinase alpha-4 (Homo sapiens), sequence (O75676 whole entry, looked up): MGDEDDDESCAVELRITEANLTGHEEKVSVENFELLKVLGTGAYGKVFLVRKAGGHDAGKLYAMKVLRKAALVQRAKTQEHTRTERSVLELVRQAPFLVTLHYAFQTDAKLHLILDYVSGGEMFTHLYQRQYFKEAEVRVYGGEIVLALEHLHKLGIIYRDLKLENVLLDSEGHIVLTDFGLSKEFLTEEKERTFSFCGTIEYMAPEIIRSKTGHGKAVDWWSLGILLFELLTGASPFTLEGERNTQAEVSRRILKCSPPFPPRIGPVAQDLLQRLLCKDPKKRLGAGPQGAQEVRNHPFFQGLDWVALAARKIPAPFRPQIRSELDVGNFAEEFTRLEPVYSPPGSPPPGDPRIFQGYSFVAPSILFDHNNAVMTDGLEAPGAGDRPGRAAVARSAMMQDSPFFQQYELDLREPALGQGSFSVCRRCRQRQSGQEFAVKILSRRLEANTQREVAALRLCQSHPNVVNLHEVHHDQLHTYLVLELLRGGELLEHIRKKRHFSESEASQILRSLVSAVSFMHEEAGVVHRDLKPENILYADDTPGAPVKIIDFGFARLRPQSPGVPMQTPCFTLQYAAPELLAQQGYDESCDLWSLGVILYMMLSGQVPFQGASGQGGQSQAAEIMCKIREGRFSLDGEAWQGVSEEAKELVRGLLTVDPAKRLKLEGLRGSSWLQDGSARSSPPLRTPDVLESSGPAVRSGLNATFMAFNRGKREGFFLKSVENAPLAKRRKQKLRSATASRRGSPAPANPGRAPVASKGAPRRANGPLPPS
Tyrosine-protein kinase ABL2 (Homo sapiens), sequence (P42684 whole entry, the tested form may be a part, canonical isoform): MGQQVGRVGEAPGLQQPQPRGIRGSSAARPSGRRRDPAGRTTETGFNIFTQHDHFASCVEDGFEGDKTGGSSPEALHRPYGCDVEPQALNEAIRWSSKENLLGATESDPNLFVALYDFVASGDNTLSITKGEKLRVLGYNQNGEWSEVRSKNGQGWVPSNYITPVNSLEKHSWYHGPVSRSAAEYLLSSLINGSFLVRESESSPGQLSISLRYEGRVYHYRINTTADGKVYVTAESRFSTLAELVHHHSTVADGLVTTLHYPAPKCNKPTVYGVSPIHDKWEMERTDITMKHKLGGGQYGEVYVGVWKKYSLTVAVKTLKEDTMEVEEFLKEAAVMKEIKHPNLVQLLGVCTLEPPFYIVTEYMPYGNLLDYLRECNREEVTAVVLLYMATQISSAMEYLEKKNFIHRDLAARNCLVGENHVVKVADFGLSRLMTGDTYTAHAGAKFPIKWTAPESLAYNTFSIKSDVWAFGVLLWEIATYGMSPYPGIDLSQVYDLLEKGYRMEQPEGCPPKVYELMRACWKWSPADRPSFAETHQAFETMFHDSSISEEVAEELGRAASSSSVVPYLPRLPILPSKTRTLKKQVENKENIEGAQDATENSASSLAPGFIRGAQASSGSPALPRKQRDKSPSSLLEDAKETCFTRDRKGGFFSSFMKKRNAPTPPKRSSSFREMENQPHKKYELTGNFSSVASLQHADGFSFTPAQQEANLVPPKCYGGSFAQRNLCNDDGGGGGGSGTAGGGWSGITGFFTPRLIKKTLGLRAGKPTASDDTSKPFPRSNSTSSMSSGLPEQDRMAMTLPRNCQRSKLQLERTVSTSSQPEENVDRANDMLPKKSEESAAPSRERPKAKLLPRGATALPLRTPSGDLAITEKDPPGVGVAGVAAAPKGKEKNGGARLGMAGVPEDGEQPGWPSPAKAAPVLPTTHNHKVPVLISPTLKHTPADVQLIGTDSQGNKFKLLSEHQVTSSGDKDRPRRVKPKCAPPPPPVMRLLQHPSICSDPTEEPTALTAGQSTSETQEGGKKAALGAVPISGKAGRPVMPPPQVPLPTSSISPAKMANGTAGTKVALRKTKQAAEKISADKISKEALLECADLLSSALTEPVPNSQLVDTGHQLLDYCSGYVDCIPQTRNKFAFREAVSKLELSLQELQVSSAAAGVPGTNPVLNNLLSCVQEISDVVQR

`NC1(Cc2ccc(Cl)cc2)CCN(c2ncnc3[nH]ccc23)CC1` showed an inhibition [1] of 6%.
With `Clc1ccc(C2(c3ccc(-c4ncnc5[nH]cnc45)cc3)CCNCC2)cc1` the inhibition [2] was 82.5%.
`COC(=O)c1cnc(Nc2cnc(C#N)cn2)cc1NCC1CCNCC1` showed an inhibition [3] of 6.5%.
Molecule `NCC1CN(c2ncnc3[nH]c4cnccc4c23)CCO1` (stereo not drawn) has an inhibition [4] of 15.5%.
`NCCc1ccc(-c2ncnc3[nH]cnc23)cc1` gave an inhibition [5] of 39.5%.
Molecule `NCC1CCN(c2ncnc3[nH]ccc23)CC1` has an inhibition [6] of 13.5%.
`c1cnc2[nH]ccc2c1` gave an inhibition [7] of 40%.
`NC1CCN(c2ncnc3[nH]ccc23)CC1` was tested, and the inhibition [8] was 0%.

Reference: ChEMBL document CHEMBL3132769, “Fragment growing to retain or alter the selectivity of anchored kinase hinge-binding fragments” (Medchemcomm, 2014)
